The target in the experiment is Nuclear receptor subfamily 1 group D member 1 (Homo sapiens) (UniProt P20393). The experiment can be described thus: Rev-erbα–DNA interaction modulators – biochemical, FITC-DNA, fluorescence polarization, dose response (AID 1259321). The settings on record: Rev-erb alpha-FITC-DNA binding.

Calls of active or inactive are those of the source.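 Rule for the calls: active = half-maximal concentration for changing protein binding to DNA, from the fitted dose curve, below 10 micromolar; inactive = the rest.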

Sequence of Nuclear receptor subfamily 1 group D member 1 (Homo sapiens) (P20393 whole entry, looked up): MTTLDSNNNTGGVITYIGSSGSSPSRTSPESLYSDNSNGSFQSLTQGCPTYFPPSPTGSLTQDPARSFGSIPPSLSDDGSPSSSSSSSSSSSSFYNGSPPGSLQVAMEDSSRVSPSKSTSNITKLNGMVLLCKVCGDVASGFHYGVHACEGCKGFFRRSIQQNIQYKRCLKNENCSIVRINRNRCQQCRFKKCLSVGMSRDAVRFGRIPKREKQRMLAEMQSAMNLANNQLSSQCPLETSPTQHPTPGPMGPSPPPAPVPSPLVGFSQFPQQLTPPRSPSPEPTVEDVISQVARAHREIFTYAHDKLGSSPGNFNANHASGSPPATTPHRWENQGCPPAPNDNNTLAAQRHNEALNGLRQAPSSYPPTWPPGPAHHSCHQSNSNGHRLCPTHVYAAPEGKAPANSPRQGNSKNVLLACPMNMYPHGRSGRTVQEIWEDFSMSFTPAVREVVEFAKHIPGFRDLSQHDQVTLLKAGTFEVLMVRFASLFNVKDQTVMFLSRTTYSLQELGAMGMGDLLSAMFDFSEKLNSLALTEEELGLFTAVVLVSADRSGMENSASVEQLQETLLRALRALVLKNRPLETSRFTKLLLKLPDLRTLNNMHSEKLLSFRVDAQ

Turning to `COC(=O)c1ccccc1NC(=O)C1=CC(c2cccs2)=NS(=O)(=O)N1C`, the concentration for half-maximal inhibition (IC50) is 1.14 µM.

`COC(=O)c1cccc(Cn2ccc3ccc(-c4ccc5ccn(C(=O)C6CCCCC6)c5c4)cc32)c1`: the IC50 was 7.14 µM.

Turning to `O=C(Nc1ccnc(-c2cccnc2)n1)c1ccc(Cl)cc1`, the IC50 is 5.12 µM. Regarding `O=C(CSc1ncnc2c1oc1ccccc12)Nc1ccc2c(c1)OCCO2`, the IC50 was > 40 µM (inactive). For the compound `COc1ccccc1NC(=O)c1oc2ccccc2c1NC(=O)c1cc(OC)c(OC)c(OC)c1`, the IC50 is 4.77 µM. For `Cc1ccc(C2(C(F)(F)F)NC(=O)N3C(=C2C#N)Nc2ccccc23)cc1` (configuration not stated), the half-maximal inhibitory concentration (IC50) was 2.68 µM. Consider `CCCCOc1ccc(N(CC(=O)NC2CCCCC2)C(=O)c2snc(C(N)=O)c2N)cc1`, for which the IC50 was > 40 µM (inactive). As to `O=C(NCc1ccco1)c1ccc(Cn2c(=O)c3sccc3n(Cc3cccc(F)c3)c2=O)cc1`, the IC50 is > 40 µM (inactive). With `CC(=O)Nc1sc(C)c(C)c1C(=O)OCC(=O)N(Cc1ccccc1)C(C)C`, the IC50 entry is “inactive”. As for `Cc1nn(C)c(C)c1NC(=O)CSc1nc(-c2ccccc2Cl)nc2c1cnn2-c1ccccc1`, the figure is 0.879 µM; as for `Cc1cc(C)c2nc(SCC(=O)Nc3ccccc3N3CCOCC3)c(C#N)cc2c1`, 6.99 µM. Take `O=C(COc1ncnc2ccc(Br)cc12)NCc1ccc2c(c1)OCO2`: the IC50 was 1.94 µM. `CCc1cc2cc3c(cc2nc1SCC(=O)Nc1nnc(C)s1)OCCO3`: the IC50 is 5.32 µM. Regarding `COc1ccc(-c2cc(C(F)(F)F)c(C#N)c(SCC(=O)Nc3nc(C)co3)n2)cc1`, the concentration for half-maximal inhibition (IC50) was 3.59 µM. As for `c1ccc2nc(-c3ccc(N4CCOCC4)cc3)ccc2c1`, the figure is > 40 µM (inactive); as for `CCOc1cc2[nH]c(=S)n(CCC(=O)N3CCc4ccccc4C3)c(=O)c2cc1OCC`, “inactive”.

On to `COCCN(Cc1cc2cc(C)ccc2n2nnnc12)C(=S)Nc1ccc(C)cc1`, for which the IC50 entry is “inactive”. In the case of `O=C(CCc1c[nH]c2ccccc12)NCCc1ccc2c(c1)OCCO2`, the half-maximal inhibitory concentration (IC50) was 1.08 µM. With `N#Cc1cccc(Cn2ccc3ccc(-c4ccc5ccn(Cc6cccc(C#N)c6)c5c4)cc32)c1`, the IC50 was 0.544 µM.

Regarding `COc1cc(OC)cc(-c2c(C#Cc3ccsc3)c3cc(-c4ccc(SC)cc4)ccc3n2C)c1`, the IC50 is 7.92 µM. On to `Oc1ccccc1-c1nc(N2CCCC2)c2ccccc2n1`, for which the IC50 is 2.1 µM. For the compound `COC(=O)c1cccc(Cn2ccc3ccc(-c4ccc5ccn(C(=O)c6ccc(C)cc6)c5c4)cc32)c1`, the IC50 was > 40 µM (inactive). Next, `Cc1nc(N2CCN(c3ccccn3)CC2)c2c(C)c(C(=O)N3CCN(c4cccc(Cl)c4)CC3)sc2n1`: > 40 µM (inactive); `COC(=O)c1sc2nc(-c3ccccc3)c3c(c2c1N)CCCC3`: “inactive”; `CCOc1ccc2nc(N/C(N)=N/C(=S)Nc3cccc(C)c3)nc(C)c2c1`: 8.37 µM. For `CCc1nnc(NC(=O)CSc2nc3cc4c(cc3cc2CC)OCCO4)s1`, the IC50 was 3.66 µM. Next, `CN(C)C=Nc1nc2c(Br)ccc(Br)c2cc1C(=O)NCC(C)(C)C`: “inactive”; `COc1ccc2[nH]cc(/C=C/c3cc[n+](C)cc3)c2c1`: 5.25 µM. Turning to `CCOC(=O)c1ccc2nc(Nc3nc4ccc(F)cc4s3)sc2c1`, the IC50 is 7.02 µM. As for `COC(=O)c1ccc(Cn2ccc3ccc(-c4ccc5ccn(C(=O)c6ccccc6OC)c5c4)cc32)cc1`, the IC50 was 5.24 µM. In the case of `O=S(=O)(c1ccc2nc(N3CCN(c4ccccc4F)CC3)ccc2c1)N1CCCCC1`, the 50% inhibitory concentration (IC50) was 0.838 µM. As to `CN1CCS/C1=C/C=C1\SC(=S)N(CC(=O)O)C1=O`, the IC50 was 1.12 µM.

`CCN1C(=O)/C(=C/C=C2/SCCN2C)SC1=S`: the IC50 result is “inactive”. With `COc1ccccc1N1C(=O)c2cccc3c(N(C)CCO)ccc(c23)C1=O`, the IC50 is 8.2 µM. For the compound `Cc1cc(NC(=O)CSc2nc3c(C)cccc3cc2C#N)no1`, the IC50 is > 40 µM (inactive).

Take `CCOC(=O)CSc1nc2cc(OCC)ccc2cc1C#N`: the IC50 is 6.06 µM.

On to `CCC(=O)c1cn(CC(=O)Nc2cccc(C)c2)c2ccccc12`, for which the IC50 was > 40 µM (inactive).

As to `Fc1ccc2nc(Nc3nc4c(F)cc(F)cc4s3)sc2c1`, the IC50 was 7.05 µM. As for `O=C(Nc1nc(=O)c2ccccc2s1)c1ccc(F)cc1`, the figure is 1.57 µM; as for `Cc1sc2nc(N3CCOCC3)[nH]c(=O)c2c1-c1ccccc1`, 7.66 µM. `O=[N+]([O-])c1cc(-c2cnc3ccccc3n2)ccc1Cl`: the IC50 was 3.68 µM. Turning to `CN(CCC#N)c1ccc(/C=C(\C#N)c2ccccn2)cc1`, the IC50 is 5.63 µM. `CCc1nc(SCC(=O)Nc2ccc3c(c2)OCCO3)c2oc3ccccc3c2n1`: the IC50 was 1.3 µM.

Turning to `CCOC(=O)c1sc(NC(=S)NC(=O)c2ccc(OC)cc2)nc1C`, the IC50 was 2.11 µM. As to `CCCCn1c(SC(C)C(=O)NCC2CCCO2)nc2cc(C(=O)OC)ccc2c1=O` (configuration not stated), the IC50 was > 40 µM (inactive). For the compound `COc1ccc2cc(C(=O)Nc3ccc(S(N)(=O)=O)cc3)sc(=O)c2c1OC`, the IC50 is 3.03 µM.

Take `Cc1nn(-c2ccc(Cl)c(Cl)c2)c(=O)c2ccccc12`: the IC50 is 5.16 µM.

Turning to `O=C(Nc1cccc(C(F)(F)F)c1)c1cc(Br)cc2c1OCC2`, the IC50 was > 40 µM (inactive). On to `COc1ccc2cc(C#N)c(Nc3cccc(F)c3)nc2c1`, for which the IC50 was 7.69 µM. As for `COc1ccc(C(C)(C)C)cc1NC(=O)C1=CC=CN2CCS(=O)(=O)N=C12`, the figure is 5.35 µM. On to `Cn1c(SCC(=O)c2ccc3c(c2)Cc2ccccc2-3)nnc1-c1ccccc1`, for which the IC50 is 2.24 µM.

For `COc1ccc(Cn2ccc3ccc(-c4ccc5ccn(C(=O)c6cccc(OC)c6)c5c4)cc32)cc1`, the IC50 is > 40 µM (inactive). Regarding `CCN(CC)c1ccc(/C=C/c2cccc[n+]2C)c(OC)c1`, the half-inhibitory concentration (IC50) is 7.32 µM. As for `O=c1c2ccccc2n2c(-c3ccc(F)cc3)nnc2n1Cc1ccccc1`, the IC50 result was “inactive”. For the compound `COc1ccc2c(c1)oc(=O)c1c3ccccc3[nH]c21`, the IC50 was > 40 µM (inactive). Take `Cc1nc(SCC(=O)Nc2ccccc2)c2oc3ccccc3c2n1`: the IC50 entry was “inactive”.

As to `CCOc1ccc(NC(=O)CCSc2ccc3ccccc3n2)cc1`, the IC50 was 5.15 µM. `Cc1cc2cc3c(=O)[nH]c(=O)[nH]c3nc2cc1C`: the IC50 was 3.34 µM. As for `Cc1cccc(-c2nnn3c2nc(NCCc2ccc(S(N)(=O)=O)cc2)c2ccccc23)c1`, the IC50 was > 40 µM (inactive). On to `CCOC(=O)c1c(NC(=S)Nc2ccc(OC)cc2)sc2c1CCC2`, for which the IC50 was 5.93 µM.

As for `Cc1ccccc1OCC(=O)Nc1ccc2c(c1)C(=O)c1ccccc1C2=O`, the IC50 was > 40 µM (inactive). Next, `COc1ccc(-n2nc(C(=O)NCC(=O)NCc3ccc(F)cc3)c3ccccc3c2=O)cc1OC`: “inactive”; `C=CCOc1ccc(/C(O)=C2\C(=O)C(=O)N(CCN(C)C)C2c2cccs2)cc1` (configuration not stated): 7.38 µM. Next, `Cc1cc2nc3c(=O)n(CCc4ccccc4)c(=O)[nH]c3nc2cc1N`: > 40 µM (inactive). `CCOC(=O)c1ccc(CNC(=O)CSc2nc(NC(=O)c3ccccc3)c3c(C)c(C)oc3n2)cc1`: the IC50 entry is “inactive”.

Regarding `CC(C)c1ccc(-c2c(C#N)c(N)nc(SCC(=O)N3CCCCC3)c2C#N)cc1`, the half-inhibitory concentration (IC50) was 3.15 µM.

Consider `COc1ccc(NC(=O)c2sc3nc(N4CCCC4)c4c(c3c2N)CC(C)(C)OC4)c(OC)c1`, for which the IC50 was > 40 µM (inactive). For the compound `Cc1ccc2c(n1)sc1c(-c3ccccc3)c(C#N)c(N)nc12`, the IC50 result was “inactive”. Consider `CCOc1ccc(CC(=O)Nc2sc(Cc3ccccc3)cc2C(N)=O)cc1OCC`, for which the IC50 is > 40 µM (inactive). For the compound `C/C(N)=C(/C#N)C(=O)CSc1nc2ccccc2c(=O)n1-c1ccc(C)c(Cl)c1`, the IC50 was > 40 µM (inactive). In the case of `Fc1cccc(CSc2ncnc3c2oc2ccccc23)c1`, the IC50 was 2.38 µM. Regarding `COC(=O)c1ccc(CSc2ncnc3c2oc2ccccc23)o1`, the IC50 was 2.73 µM. As for `Cc1cc(-c2csc3nc[nH]c(=S)c23)cc(C)c1C`, the figure is 5.33 µM; as for `COc1ccc(C)cc1NC(=O)c1cc2c(=O)n3ccccc3nc2n1C`, 3.91 µM.

`Brc1ccc(Sc2cnc3ccccc3n2)cc1`: the IC50 result is “inactive”. For `CN(C)c1ccc2nc3c(=O)[nH]c(=O)nc-3n(CC(O)C(O)C(O)CO)c2c1` (configuration not stated), the IC50 is 0.801 µM. As for `C=CCN1C(=O)/C(=C\C=C2\N(C)c3ccccc3C2(C)C)SC1=S`, the IC50 entry is “inactive”. For `CCN1/C(=C\c2ccc3ccccc3[n+]2CC)Sc2cc(C)ccc21`, the IC50 is 2.67 µM.

On to `COc1ccccc1-c1ccc2c(c1)C(C)(Cc1cccc(F)c1)C(=O)N2` (configuration not stated), for which the IC50 was 7.15 µM.

For the compound `O=C1c2cccc3c(O)ccc(c23)C(=O)N1Cc1ccccc1`, the IC50 entry was “inactive”. Turning to `CCOC(=O)c1ccccc1NC(=O)c1cncc(Br)c1`, the IC50 was 7.27 µM. `COc1ccc(C(=O)Nc2ccccc2-c2nnn(CC(N)=O)n2)cc1`: the IC50 result is “inactive”.

Consider `Brc1nc(-c2ccccc2)nc(-c2ccccc2)c1Br`, for which the IC50 is > 40 µM (inactive). As for `O=C(OCC(=O)c1c[nH]c2ccccc12)c1cc(Br)ccc1O`, the figure is 5.27 µM; as for `O=[N+]([O-])c1ccc2c(c1)Cc1cc(F)ccc1-2`, 9.46 µM. `COc1cc(OC)cc(-n2c3nc4ccccc4nc3c3c(=O)n(CC4CCCO4)cnc32)c1` (configuration not stated): the IC50 is 4.12 µM. Turning to `COC(=O)c1ccccc1-c1c2ccc(=N)cc-2oc2cc(N)ccc12`, the IC50 was > 40 µM (inactive). As for `COc1cccc(C(=O)Nc2ccc(-c3nc4ccccc4o3)c(O)c2)c1`, the figure is > 40 µM (inactive); as for `CCOC(=O)Cn1c(=NC(=O)c2cccs2)sc2cc(C(=O)OC)ccc21`, “inactive”.

With `COc1ccccc1-c1nc(SCC(=O)N(C)c2ccccc2)c2c(=O)n(C)c(=O)n(C)c2n1`, the IC50 was 3.13 µM.

For the compound `CCSc1nnc(NC(=O)c2cc3c(s2)CCCC3)s1`, the IC50 is 1.58 µM. As for `O=C(OCCN1C(=O)c2cccc3c(N4CCOCC4)ccc(c23)C1=O)c1ccc(Cl)cc1Cl`, the IC50 was > 40 µM (inactive).

The values are drawn from PubChem BioAssay AID1259321 (Sanford-Burnham Center for Chemical Genomics, 2017).
